Consider 14 molecules from PubChem BioAssay (NCI).

Some test systems named below: A498 renal; K-562 leukemia; TK-10 renal; HL-60(TB) leukemia; NCI-H522 lung; NCI-H460 lung; SF-539 CNS; UACC-62 melanoma; CAKI-1 renal; OVCAR-8 ovarian.
Experiment in all cases: growth of human tumour cells (NCI), 48 h

Structures are written as SMILES.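 Test compounds were applied to cells in 96-well plates for 48 hours at 5 doses. TGI: concentration producing complete growth inhibition.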

Take `Cc1[nH]c(-c2ccccc2)c(-c2ccc(Cl)cc2)c1C(=O)ONC(=O)c1ccccc1`: the TGI stood at 18.4 µM in the experiment with A498 renal; 16.7 µM in the experiment with K-562 leukemia; 9.76 µM in the experiment with TK-10 renal; 3.29 µM in the experiment with HL-60(TB) leukemia; 5.42 µM in the experiment on NCI-H522 lung; 5.11 µM in the experiment with NCI-H460 lung. The TGI in the experiment on SF-539 CNS is 6.02 µM; with UACC-62 melanoma, 23.3 µM; in the experiment with CAKI-1 renal it was 6.88 µM; in the experiment with OVCAR-8 ovarian, 17 µM.
Consider `O=C1[C@@H]2Cc3c([nH]c4ccccc34)C(C3CCCCC3)N2C(=O)[C@@H]2CCCN12` (stereo not given in full), for which the TGI is over 100 µM with A498 renal; over 100 µM in the experiment with K-562 leukemia; over 100 µM in the experiment on TK-10 renal; 59.2 µM with HL-60(TB) leukemia; 63.1 µM with NCI-H522 lung; 49 µM in the experiment on UACC-62 melanoma. Moreover, the TGI in the experiment on CAKI-1 renal is 80.8 µM; with OVCAR-8 ovarian it was over 100 µM.
On to `CSCCC(NC(=O)OC(C)(C)C)C(=O)NCCNc1ccc(NCCNC(=O)C(CCSC)NC(=O)OC(C)(C)C)c2c1C(=O)c1ccccc1C2=O` (stereo not given), for which the TGI in the experiment on A498 renal is 21.1 µM; in the experiment on K-562 leukemia, over 32.7 µM; in the experiment with TK-10 renal it was 15.1 µM; with NCI-H522 lung it was 3.38 µM; in the experiment on NCI-H460 lung it was 23.1 µM; with SF-539 CNS, 6.96 µM. Also, the TGI is 14.4 µM in the experiment on UACC-62 melanoma, over 41.5 µM in the experiment with CAKI-1 renal and 5.4 µM with OVCAR-8 ovarian.
With `COC(=O)C(C)Sc1nc2cc(Cl)ccc2s1` (stereo not given), the TGI in the experiment with A498 renal, in the experiment on K-562 leukemia, in the experiment on NCI-H522 lung, with NCI-H460 lung, with SF-539 CNS and in the experiment on UACC-62 melanoma was over 100 µM throughout. For the same molecule, the TGI with CAKI-1 renal and in the experiment on OVCAR-8 ovarian was over 100 µM in each case.
Regarding `COc1ccc2c(c1)CCc1c-2n(CCN(C)C)c2ccc(OC)cc12`, the TGI in the experiment on A498 renal was 41.1 µM; in the experiment with K-562 leukemia, over 100 µM; in the experiment with TK-10 renal, 80.3 µM; with NCI-H522 lung, 75.9 µM; in the experiment with NCI-H460 lung it was over 100 µM; in the experiment on UACC-62 melanoma, over 100 µM. In addition, the TGI with CAKI-1 renal was over 100 µM; with OVCAR-8 ovarian it was 51 µM.
In the case of `O=C(O)c1ccc(Nc2nc3cc(C(F)(F)F)ccc3nc2C(=O)O)cc1`, the TGI in the experiment on A498 renal, with K-562 leukemia, with HL-60(TB) leukemia, with NCI-H522 lung, in the experiment on NCI-H460 lung and with CAKI-1 renal was over 100 µM in each case. The molecule also yielded a TGI in the experiment on OVCAR-8 ovarian of over 100 µM.
Consider `O=C(NCCO)c1ccc(Cl)cc1`, for which the TGI in the experiment with A498 renal, in the experiment on K-562 leukemia, in the experiment with TK-10 renal, in the experiment on NCI-H522 lung, in the experiment with NCI-H460 lung and in the experiment with UACC-62 melanoma was over 100 µM throughout. Further, the TGI with CAKI-1 renal and with OVCAR-8 ovarian was over 100 µM each time.
For `O=C1C=CC(=O)c2ncccc21`, the TGI in the experiment on A498 renal was 27.4 µM; in the experiment on K-562 leukemia it was over 24.7 µM; in the experiment on TK-10 renal, 17.4 µM; in the experiment on HL-60(TB) leukemia it was 2.02 µM; in the experiment on NCI-H522 lung it was 3.44 µM; in the experiment on NCI-H460 lung, 17.5 µM. Moreover, the TGI with SF-539 CNS was 22.6 µM; in the experiment on UACC-62 melanoma it was 9.3 µM; in the experiment with CAKI-1 renal it was 4.02 µM; in the experiment with OVCAR-8 ovarian, 26.5 µM.
On to `Cc1ccc(S(=O)(=O)N2CCN(CCN(C)CCN3CCN(S(=O)(=O)c4ccc(C)cc4)CC3)CC2)cc1`, for which the TGI in the experiment on A498 renal turned out to be 31.8 µM; in the experiment on K-562 leukemia it was 35.2 µM; with TK-10 renal it was 30.2 µM; with HL-60(TB) leukemia it was 33.6 µM; in the experiment with NCI-H522 lung, 38.9 µM; in the experiment on NCI-H460 lung, 32.2 µM. In addition, the TGI in the experiment on SF-539 CNS is 30.3 µM; in the experiment with UACC-62 melanoma, 32.8 µM; with CAKI-1 renal, 40.5 µM; with OVCAR-8 ovarian it was 32.7 µM.
Take `CC(C)(C)N1Cc2ccccc2/C(=C/Sc2ccccc2)C1=O`: the TGI is 35.4 µM in the experiment with A498 renal; over 100 µM in the experiment on K-562 leukemia; 34.8 µM in the experiment on TK-10 renal; 39.8 µM with HL-60(TB) leukemia; 11.4 µM in the experiment with NCI-H522 lung; 30 µM in the experiment on NCI-H460 lung. Also, the TGI in the experiment on SF-539 CNS came to 24.3 µM; in the experiment with UACC-62 melanoma, 24.3 µM; with CAKI-1 renal it was 30.7 µM; in the experiment on OVCAR-8 ovarian, 22.3 µM.
For `O=C(O)c1ccccc1/C=N\NC1=NCCCCN1`, the TGI with A498 renal, with K-562 leukemia, in the experiment with TK-10 renal, with NCI-H522 lung, in the experiment with NCI-H460 lung and with SF-539 CNS was over 100 µM each time. The TGI in the experiment with UACC-62 melanoma, with CAKI-1 renal and in the experiment on OVCAR-8 ovarian was over 100 µM throughout.
Take `CCOC(=O)c1c(N2CCOCC2)[nH]c(=O)c(C(c2ccc(OC)cc2)c2c(O)c(C(=O)OCC)c(N3CCOCC3)[nH]c2=O)c1O`: the TGI in the experiment with A498 renal, with K-562 leukemia, in the experiment with TK-10 renal, with NCI-H522 lung, in the experiment with NCI-H460 lung and with SF-539 CNS was over 100 µM throughout. Also, the TGI with UACC-62 melanoma, with CAKI-1 renal and in the experiment with OVCAR-8 ovarian was over 100 µM in each case.
For the molecule `CCOC(=O)C1=C(C)NC(=S)NC1c1cccc(O)c1` (stereo not given), the TGI is 87.6 µM in the experiment with A498 renal; over 100 µM with K-562 leukemia; over 100 µM in the experiment with TK-10 renal; 77.5 µM with HL-60(TB) leukemia; 93.9 µM with NCI-H522 lung; over 100 µM in the experiment with NCI-H460 lung. Besides, the TGI with SF-539 CNS is over 100 µM; in the experiment on UACC-62 melanoma, over 96.6 µM; in the experiment on CAKI-1 renal it was over 100 µM; in the experiment with OVCAR-8 ovarian it was over 100 µM.
As for `CC1(C)[C@@H]2C[C@H]1c1cnc(-c3ccccn3)cc1C2[C@@H]1c2cc(-c3ccccn3)ncc2[C@@H]2C[C@H]1C2(C)C` (stereo not given in full), the TGI in the experiment on A498 renal was over 100 µM; in the experiment on K-562 leukemia, over 100 µM; in the experiment with TK-10 renal it was 75.1 µM; in the experiment with HL-60(TB) leukemia, over 100 µM; in the experiment with NCI-H522 lung, over 100 µM; in the experiment on NCI-H460 lung, over 100 µM. Besides, the TGI with UACC-62 melanoma, in the experiment on CAKI-1 renal and in the experiment with OVCAR-8 ovarian was over 100 µM in each case.
